# According to PubChem BioAssay (NCI):
# “And” between values parts separate entries of the source, which are not always exact repeats. Equal values may be shown once.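 Five compound concentrations were applied to cells in 96-well plates for 48 hours; endpoints were derived by simple linear interpolation of the resulting dose-response curve. The concentration for 50% growth inhibition is given as GI50. Definition used: TGI = concentration required for complete inhibition of growth.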
# Columns and labels:
# Assay in all cases: NCI tumour cell line growth inhibition, 48 h
# OVCAR-5 ovarian = test system: OVCAR-5 ovarian
# HCT-116 colon = test system: HCT-116 colon
# SN12K1 renal = test system: SN12K1 renal
# SK-MEL-5 melanoma = test system: SK-MEL-5 melanoma
# SW-620 colon = test system: SW-620 colon
# HOP-18 NSCLC = test system: HOP-18 NSCLC
# KM12 colon = test system: KM12 colon
# ACHN renal = test system: ACHN renal
# DU-145 prostate = test system: DU-145 prostate
# MCF7 breast = test system: MCF7 breast
# RPMI-8226 leukemia = test system: RPMI-8226 leukemia
# MDA-N = test system: MDA-N
# SN12C renal = test system: SN12C renal
# K-562 leukemia = test system: K-562 leukemia
# SK-MEL-28 melanoma = test system: SK-MEL-28 melanoma
# SF-539 CNS = test system: SF-539 CNS
# UO-31 renal = test system: UO-31 renal
# A498 renal = test system: A498 renal
# BT-549 breast = test system: BT-549 breast
# SF-295 CNS = test system: SF-295 CNS
# M14 melanoma = test system: M14 melanoma
# CAKI-1 renal = test system: CAKI-1 renal
# UACC-62 melanoma = test system: UACC-62 melanoma
# TK-10 renal = test system: TK-10 renal
# DLD-1 colon = test system: DLD-1 colon
# NCI-H226 lung = test system: NCI-H226 lung
# NCI-H522 lung = test system: NCI-H522 lung
smiles,measurement,setting,value
O=CC(NC(=O)N(CCCl)N=O)C(O)C(O)C(O)CO (stereo unspecified),TGI,OVCAR-5 ovarian,> 1250 µM
same,GI50,HCT-116 colon,302 µM and 1030 µM and 467 µM
same,TGI,HCT-116 colon,625 µM and > 1250 µM and > 992 µM
same,GI50,SN12K1 renal,133 µM and 290 µM
same,TGI,SN12K1 renal,625 µM and > 1250 µM
same,GI50,SK-MEL-5 melanoma,161 µM
same,TGI,SK-MEL-5 melanoma,625 µM and 647 µM
same,GI50,SW-620 colon,171 µM and > 1250 µM
same,TGI,SW-620 colon,625 µM and > 1250 µM
same,GI50,HOP-18 NSCLC,> 625 µM
same,TGI,HOP-18 NSCLC,> 1250 µM
same,GI50,KM12 colon,541 µM
same,TGI,KM12 colon,625 µM and > 1250 µM
same,TGI,ACHN renal,> 1250 µM
same,TGI,DU-145 prostate,> 1250 µM
same,GI50,MCF7 breast,485 µM
same,TGI,MCF7 breast,625 µM and > 1250 µM
same,GI50,RPMI-8226 leukemia,497 µM and > 1250 µM
same,TGI,RPMI-8226 leukemia,625 µM and > 1250 µM
same,TGI,MDA-N,> 1220 µM
same,GI50,SN12C renal,206 µM and > 1250 µM
same,TGI,SN12C renal,625 µM and > 1250 µM
same,GI50,K-562 leukemia,> 198 µM and 1040 µM
same,TGI,K-562 leukemia,> 1250 µM
same,GI50,SK-MEL-28 melanoma,> 1250 µM
same,TGI,SK-MEL-28 melanoma,> 1250 µM
same,GI50,SF-539 CNS,40 µM and 255 µM
same,TGI,SF-539 CNS,483 µM and > 1250 µM and 614 µM
same,TGI,UO-31 renal,> 1250 µM
same,GI50,A498 renal,> 1250 µM
same,TGI,A498 renal,> 1250 µM
same,TGI,BT-549 breast,> 1250 µM
same,GI50,SF-295 CNS,31.5 µM
same,TGI,SF-295 CNS,625 µM and 764 µM
same,TGI,M14 melanoma,> 1250 µM
same,GI50,CAKI-1 renal,269 µM
same,TGI,CAKI-1 renal,625 µM and > 1250 µM
same,GI50,UACC-62 melanoma,18.5 µM
same,TGI,UACC-62 melanoma,185 µM and > 1250 µM and 939 µM
same,TGI,TK-10 renal,> 1250 µM
same,GI50,DLD-1 colon,> 625 µM
same,TGI,DLD-1 colon,> 1250 µM
same,GI50,NCI-H226 lung,73.1 µM
same,TGI,NCI-H226 lung,625 µM and > 1250 µM
same,GI50,NCI-H522 lung,> 625 µM
same,TGI,NCI-H522 lung,> 1250 µM
